ChEMBL document CHEMBL3639234, “Pyrimidine PDE10 inhibitors” (2015)

Target: cAMP and cAMP-inhibited cGMP 3',5'-cyclic phosphodiesterase 10A (Homo sapiens, UniProt Q9Y233)
Test: Inhibition Assay: PDE10A2 was amplified from human fetal brain cDNA (Clontech, Mountain View, Calif.) using a forward primer corresponding to nucleotides 56-77 of human PDE10A2 (Accession No. AF127480, Genbank Identifier 4894716), containing a Kozak consensus sequence, and a reverse primer corresponding to nucleotides 2406-2413 of human PDE10A2 (Accession No. AF127480, Genbank Identifier 4894716). Amplification with Easy-A polymerase (Stratagene, La Jolla, Calif.) was 95° C. for 2 minutes followed by thirty three cycles of 95° C. for 40 seconds, 55° C. for 30 seconds, and 72° C. for 2 minutes 48 seconds. Final extension was 72° C. for 7 minutes. The PCR product was TA cloned into pcDNA3.2-TOPO (Invitrogen, Carlsbad, Calif.) according to standard protocol. AD293 cells with 70-80% confluency were transiently transfected with human PDE10A2/pcDNA3.2-TOPO using Lipofectamine 2000 according to manufacturer specifications (Invitrogen, Carlsbad, Calif.). Cells were harvested 48 hours post-transfection.
Format: cell-based

Sequence of cAMP and cAMP-inhibited cGMP 3',5'-cyclic phosphodiesterase 10A (Q9Y233 whole entry): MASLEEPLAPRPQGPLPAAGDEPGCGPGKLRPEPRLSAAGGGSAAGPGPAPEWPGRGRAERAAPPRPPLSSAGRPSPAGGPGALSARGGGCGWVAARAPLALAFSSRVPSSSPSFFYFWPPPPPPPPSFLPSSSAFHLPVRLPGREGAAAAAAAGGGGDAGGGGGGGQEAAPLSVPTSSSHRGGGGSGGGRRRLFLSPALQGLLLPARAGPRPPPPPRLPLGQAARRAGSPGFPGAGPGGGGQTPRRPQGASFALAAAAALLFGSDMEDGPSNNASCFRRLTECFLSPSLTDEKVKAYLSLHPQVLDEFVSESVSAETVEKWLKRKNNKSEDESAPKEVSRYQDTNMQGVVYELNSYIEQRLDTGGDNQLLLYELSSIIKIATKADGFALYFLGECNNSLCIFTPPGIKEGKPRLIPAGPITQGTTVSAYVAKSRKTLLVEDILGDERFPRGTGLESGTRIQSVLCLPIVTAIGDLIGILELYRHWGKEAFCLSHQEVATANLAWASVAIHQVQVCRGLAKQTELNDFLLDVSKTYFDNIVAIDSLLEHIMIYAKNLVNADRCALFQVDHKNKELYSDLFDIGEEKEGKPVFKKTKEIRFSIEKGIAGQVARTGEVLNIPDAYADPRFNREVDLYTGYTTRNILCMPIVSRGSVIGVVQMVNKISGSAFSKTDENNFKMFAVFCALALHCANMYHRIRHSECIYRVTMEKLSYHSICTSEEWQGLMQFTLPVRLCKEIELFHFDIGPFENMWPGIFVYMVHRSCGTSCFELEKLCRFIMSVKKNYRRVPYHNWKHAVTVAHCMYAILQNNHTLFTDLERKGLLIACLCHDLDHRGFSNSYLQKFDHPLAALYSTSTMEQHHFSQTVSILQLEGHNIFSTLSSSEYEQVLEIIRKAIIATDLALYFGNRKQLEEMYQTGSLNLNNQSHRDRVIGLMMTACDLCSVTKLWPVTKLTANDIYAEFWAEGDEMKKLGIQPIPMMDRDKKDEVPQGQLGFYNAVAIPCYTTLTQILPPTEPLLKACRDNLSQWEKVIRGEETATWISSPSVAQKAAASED

Ki: 0.04 nM
Compound: Cc1ccc([C@H]2C[C@@H]2COc2cc(NCc3cnn(C)c3)nc(C)n2)nc1
